From patent publication US8039510B2, “Methods of making and using theaflavin, theaflavin-3-gallate, theaflavin-3′-gallate and theaflavin 3,3′-digallate and mixtures thereof” (Nashai Biotech, LLC, priority 2001, dated 2011)

System: Male Sprague-Dawley rats
Assay: Lipid profile of rats fed cholesterol diet plus theaflavins or catechin for eight weeks
Assay type: in vivo, rat
Settings: for HDL / LDL / TC / TG: rat plasma, eight weeks; for reducing plasma levels of TC, LDL-C and TG, compared with catechin: rats
Description: Male Sprague-Dawley rats weighing 100 g to 130 g were divided into nine groups of ten rats. The animals were individually housed in stainless-steel cages with screen bottoms in a room maintained at between 22° C. and 24° C. They were fed stationary feedstuff and water as follows as described in Table 1. In addition the rats in Group TF1-1, TF1-2 or TF1-3 were fed pure theaflavin in a dosage of 1 mg/kg/day, 2 mg/kg/day and 4 mg/kg/day, respectively. The animals in group TF2A-2, TF2B-2 or RF3-2 were fed pure theaflavin-3-gallate, theaflavin-3′-gallate and theaflavin-3,3′-digallate, respectively in a dosage of 2 mg/kg/day. The animals in group CA-1 and CA-2 were fed catechins in a dosage of 1 mg/kg/day or 2 mg/kg/day, respectively.
The Sprague Dawley rats were fed the above diets for eight weeks before sampling. The rats were not fed for 12 hours prior to sampling. The rats were given either theaflavin, theaflavin-3-gallate, theaflavin-3′-gallate, theaflavin-3,3′-digallate or catechin one hour in advance of collecting the blood sample.

[1] = group TF1-3: 4 mg/kg/day per text (Table 1 prints 3)

O=C(O[C@@H]1Cc2c(O)cc(O)cc2O[C@@H]1c1cc(=O)c(O)c2c(O)c(O)cc([C@H]3Oc4cc(O)cc(O)c4C[C@H]3O)c2c1)c1cc(O)c(O)c(O)c1 [theaflavin-3-gallate]
HDL (2 mg/kg/day): 49.2 ± 1.9^3
LDL (2 mg/kg/day): 32.2 ± 3.7^1
TC (2 mg/kg/day): 97.3 ± 8.4^1
TG (2 mg/kg/day): 95.7 ± 10.5^1
reducing plasma levels of TC, LDL-C and TG, compared with catechin: more effective

O=c1c(O)cc([C@H]2Oc3cc(O)cc(O)c3C[C@H]2O)cc2c([C@H]3Oc4cc(O)cc(O)c4C[C@H]3O)cc(O)c(O)c12 [theaflavin]
HDL (1 mg/kg/day): 48.8 ± 1.7^3
LDL (1 mg/kg/day): 45.6 ± 3.1^1
TC (1 mg/kg/day): 116.3 ± 8.2^1
TG (1 mg/kg/day, mean ± spread): 108.1 ± 13.8^2
HDL (2 mg/kg/day): 49.2 ± 2.1^3
LDL (2 mg/kg/day): 34.6 ± 3.7^1
TC (2 mg/kg/day): 101.3 ± 7.9^1
TG (2 mg/kg/day): 97.4 ± 11.6^1
HDL [1]: 49.4 ± 1.9^3
LDL [1]: 25.3 ± 2.2^1
TC [1]: 90.8 ± 7.1^1
TG [1]: 87.7 ± 12.2^1
reducing plasma levels of TC, LDL-C and TG, compared with catechin: more effective

theaflavin-3,3′-digallate
HDL (2 mg/kg/day): 49.3 ± 1.9^3
LDL (2 mg/kg/day): 31.2 ± 4.1^1
TC (2 mg/kg/day): 95.5 ± 7.4^1
TG (2 mg/kg/day): 95.36 ± 9.2^1
reducing plasma levels of TC, LDL-C and TG, compared with catechin: more effective

theaflavin-3′-gallate
HDL (2 mg/kg/day): 49.3 ± 2.7^3
LDL (2 mg/kg/day): 32.4 ± 3.3^1
TC (2 mg/kg/day): 97.8 ± 8.5^1
TG (2 mg/kg/day): 96.2 ± 10.2^1
reducing plasma levels of TC, LDL-C and TG, compared with catechin: more effective
